Article PMC3008316 (Antiviral research, 2009)
Read-outs that look alike come from different tables or passages of the source.

How the values were obtained:
[1] = test system: RVFV vaccine strain MP-12; test: microbe, parasite or virus in culture; details: Rift Valley fever virus, Vero 76, read-out: EC90 ± SD (VYR)
PTV, Adames strain [2] = test: microbe, parasite or virus in culture; details: Punta Toro virus, Vero 76, read-out: EC90 ± SD (VYR)
[3] = test system: Junin virus (JUNV) vaccine strain Candid 1; test: microbe, parasite or virus in culture; details: Mammarenavirus juninense, Vero, read-out: EC90 ± SD (VYR)
PICV, strain An 4763 [4] = type: in vivo, Syrian hamsters
PICV, strain An 4763 [5] = test system: PICV, strain An 4763
[6] = test system: phleboviruses (RVFV, PTV, SFNV); test: organism not typed; type: cell-based
PTV, Adames strain [7] = test system: PTV, Adames strain
PTV, Adames strain [8] = test system: PTV, Adames strain; remark: listed apart in the source
[9] = test system: Tacaribe virus (TCRV), strain TRVL 11573; test: microbe, parasite or virus in culture; details: Mammarenavirus tacaribeense, Vero 76, read-out: EC50 ± SD (CPER)
in vitro [10] = details: monkey, CC50 ± SD
[11] = test system: Sandfly fever virus, Naples strain (SFNV); test: microbe, parasite or virus in culture; details: sandfly fever Sicilian virus, Vero 76, read-out: EC50 ± SD (CPER)
[12] = test system: Junin virus (JUNV) vaccine strain Candid 1
[13] = test system: Tacaribe virus (TCRV), strain TRVL 11573
[14] = rats; ref Y. Furuta, unpublished data; cited from earlier work
[15] = test system: Sandfly fever virus, Naples strain (SFNV)
PTV, Adames strain [16] = test: microbe, parasite or virus in culture; details: Punta Toro virus, Vero 76, read-out: EC50 ± SD (CPER)
PICV, strain An 4763 [17] = test system: PICV, strain An 4763; remark: listed apart in the source
PTV, Adames strain [18] = test system: PTV, Adames strain; parameters: species or system Syrian hamsters; details: hamster, in vivo
PICV, strain An 4763 [19] = test: microbe, parasite or virus in culture; details: Pichinde virus, Vero, read-out: EC90 ± SD (VYR)
[20] = test system: Tacaribe virus (TCRV), strain TRVL 11573; test: microbe, parasite or virus in culture; details: Mammarenavirus tacaribeense, Vero 76, read-out: EC90 ± SD (VYR)
PTV, Adames strain [21] = test system: PTV, Adames strain; parameters: species or system C57BL/6 mice; details: mouse, in vivo
[22] = test system: Sandfly fever virus, Naples strain (SFNV); test: microbe, parasite or virus in culture; details: sandfly fever Sicilian virus, Vero 76, read-out: EC90 ± SD (VYR)
in vitro [23] = details: monkey, CC50 ± SD; remark: listed apart in the source
[24] = test system: RVFV vaccine strain MP-12; test: microbe, parasite or virus in culture; details: Rift Valley fever virus, Vero 76, read-out: EC50 ± SD (CPER)
[25] = test system: Tacaribe virus (TCRV), strain TRVL 11573; remark: listed apart in the source
[26] = test system: RVFV vaccine strain MP-12
[27] = test system: Junin virus (JUNV) vaccine strain Candid 1; remark: listed apart in the source
PICV, strain An 4763 [28] = test: microbe, parasite or virus in culture; details: Pichinde virus, Vero, read-out: EC50 ± SD (CPER)
[29] = test system: Sandfly fever virus, Naples strain (SFNV); remark: listed apart in the source
[30] = test system: Junin virus (JUNV) vaccine strain Candid 1; test: microbe, parasite or virus in culture; details: Mammarenavirus juninense, Vero, read-out: EC50 ± SD (CPER)
[31] = test system: RVFV vaccine strain MP-12; remark: listed apart in the source
[32] = hamster, in vivo, po, 25 mg/kg/day
[33] = hamster, in vivo, po, 50 mg/kg/day
[34] = hamster, in vivo, po, 100 mg/kg/day

NC(=O)c1nccn([C@@H]2O[C@H](CO)[C@@H](O)[C@H]2O)c1=O [T-1106, 3,4-dihydro-3-oxo-4-β-D-ribofuranosyl-2-pyrazinecarboxamide]
EC90 [1]: 146 ± 129 µM | EC90 (PTV, Adames strain [2]): 576 ± 450 µM | EC90 [3]: 114 ± 28 µM | Survival compared to placebo, log-rank analysis (PICV, strain An 4763 [4]; hamster, in vivo, 100 mg/kg/day): failed to significantly protect | ED50 (survival) (PICV, strain An 4763 [4]; hamster, in vivo, po): 441 µmol/kg/day | ALT ± SD (PICV, strain An 4763 [4]; [32]): 1354 ± 961 international units per liter | Mean virus titer ± SD, liver (PICV, strain An 4763 [4]; [32]): 7.7 ± 0.6 (100) | Mean virus titer ± SD, serum (PICV, strain An 4763 [4]; [32]): 6.5 ± 1.1 (100) | Percentage of animals with detectable virus, liver (PICV, strain An 4763 [4]; [32]): 7.7 ± 0.6 (100) % | Percentage of animals with detectable virus, serum (PICV, strain An 4763 [4]; [32]): 6.5 ± 1.1 (100) % | Mean virus titer ± SD, liver (PICV, strain An 4763 [4]; [33]): 7.1 ± 1.5 (100) | Mean virus titer ± SD, serum (PICV, strain An 4763 [4]; [33]): < 5.4 ± 2.1 (80) | Percentage of animals with detectable virus, liver (PICV, strain An 4763 [4]; [33]): 7.1 ± 1.5 (100) % | Percentage of animals with detectable virus, serum (PICV, strain An 4763 [4]; [33]): < 5.4 ± 2.1 (80) % | ALT ± SD (PICV, strain An 4763 [4]; [34]): 961 ± 1071 international units per liter | Mean virus titer ± SD, liver (PICV, strain An 4763 [4]; [34]): 7.4 ± 0.4 (100) | Mean virus titer ± SD, serum (PICV, strain An 4763 [4]; [34]): 6.5 ± 1.0 (100) | Percentage of animals with detectable virus, liver (PICV, strain An 4763 [4]; [34]): 7.4 ± 0.4 (100) % | Percentage of animals with detectable virus, serum (PICV, strain An 4763 [4]; [34]): 6.5 ± 1.0 (100) % | Survival outcome (PICV, strain An 4763 [4]; n=10): 4 of the 10 | Animals protected (survival) (PICV, strain An 4763 [4]; n=10, 25 mg/kg/day): 20% | Animals protected (survival) (PICV, strain An 4763 [4]; n=10, 50 mg/kg/day): 40% | SI (CC50/EC50) (PICV, strain An 4763 [5]): >24 | Greater sensitivity of RVFV to inhibitory activity [6]: ~ 5 times | Inhibitory concentrations, range [6]: 76 to 743 µM | EC50 ([6]; read-out: EC50 values, range (CPE reduction assay)): 111 to 743 µM | EC90 ([6]; read-out: EC90 values, range (VYR)): 76 to 576 µM | SI (CC50/EC50) (PTV, Adames strain [7]): >5 | SI (CC50/EC90) (PTV, Adames strain [8]): >6 | EC50 [9]: 619 ± 205 µM | CC50 (in vitro [10]): > 3720 µM | EC50 [11]: 152 ± 13 µM | SI (CC50/EC50) [12]: >29 | SI (CC50/EC90) [13]: >13 | Liver tissue:plasma ratio relative to T-705 [14]: ~ 50 fold | SI (CC50/EC50) [15]: >24 | EC50 (PTV, Adames strain [16]): 743 ± 297 µM | SI (CC50/EC90) (PICV, strain An 4763 [17]): >21 | ED50 (survival) (PTV, Adames strain [18]): 12 µmol/kg/day | Mean virus titer ± SD, liver (PTV, Adames strain [18]): < 4.3 ± 2.1 (40) | Potency relative to T-705 based on ED50 (PTV, Adames strain [18]): 9.4 times | Survival compared to placebo (PTV, Adames strain [18]): Significant protection | ALT ± SD (PTV, Adames strain [18]; po, 25 mg/kg/day): 251 ± 438 international units per liter | Mean virus titer ± SD, liver (PTV, Adames strain [18]; po, 25 mg/kg/day): < 4.6 ± 1.7 (80) | Mean virus titer ± SD, serum (PTV, Adames strain [18]; po, 25 mg/kg/day): < 4.8 ± 2.9 (60) | Percentage of animals with detectable virus, liver (PTV, Adames strain [18]; po, 25 mg/kg/day): < 4.6 ± 1.7 (80) % | Percentage of animals with detectable virus, serum (PTV, Adames strain [18]; po, 25 mg/kg/day): < 4.8 ± 2.9 (60) % | ALT ± SD (PTV, Adames strain [18]; po, 50 mg/kg/day): 802 ± 1149 international units per liter | Mean virus titer ± SD, liver (PTV, Adames strain [18]; po, 50 mg/kg/day): < 4.9 ± 1.5 (80) | Mean virus titer ± SD, serum (PTV, Adames strain [18]; po, 50 mg/kg/day): < 3.9 ± 2.2 (40) | Percentage of animals with detectable virus, liver (PTV, Adames strain [18]; po, 50 mg/kg/day): < 4.9 ± 1.5 (80) % | Percentage of animals with detectable virus, serum (PTV, Adames strain [18]; po, 50 mg/kg/day): < 3.9 ± 2.2 (40) % | ALT ± SD (PTV, Adames strain [18]; po, 100 mg/kg/day): 446 ± 959 international units per liter | Mean virus titer ± SD, serum (PTV, Adames strain [18]; po, 100 mg/kg/day): < 3.6 ± 2.6 (40) | Percentage of animals with detectable virus, liver (PTV, Adames strain [18]; po, 100 mg/kg/day): < 4.3 ± 2.1 (40) % | Percentage of animals with detectable virus, serum (PTV, Adames strain [18]; po, 100 mg/kg/day): < 3.6 ± 2.6 (40) % | EC90 (PICV, strain An 4763 [19]): 173 ± 93 µM | EC90 [20]: 296 ± 273 µM | ED50 (survival) (PTV, Adames strain [21]): 201 µmol/kg/day | EC90 [22]: 76 ± 15 µM | CC50 (in vitro [23]): > 3720 µM | EC50 [24]: 111 ± 58 µM | SI (CC50/EC50) [25]: >6 | SI (CC50/EC50) [26]: >33 | SI (CC50/EC90) [27]: >33 | EC50 (PICV, strain An 4763 [28]): 154 ± 39 µM | SI (CC50/EC90) [29]: >49 | EC50 [30]: 128 ± 44 µM | SI (CC50/EC90) [31]: >25
